In doi:10.64898/2025.12.08.692997v2 (biorxiv, 2025):
Where two headings read alike, the source gives them in different places.

Experiments:
[1] = molecular target: T1, human EphB2-His ectodomain - human EphrinB2-Fc ectodomain (EphB2-EphrinB2 tetramer) (Homo sapiens, UniProt P29323+P52799); assay: biolayer interferometry, AUC of concentration series; assay type: binding
Target sequence in this assay (P29323 19-543): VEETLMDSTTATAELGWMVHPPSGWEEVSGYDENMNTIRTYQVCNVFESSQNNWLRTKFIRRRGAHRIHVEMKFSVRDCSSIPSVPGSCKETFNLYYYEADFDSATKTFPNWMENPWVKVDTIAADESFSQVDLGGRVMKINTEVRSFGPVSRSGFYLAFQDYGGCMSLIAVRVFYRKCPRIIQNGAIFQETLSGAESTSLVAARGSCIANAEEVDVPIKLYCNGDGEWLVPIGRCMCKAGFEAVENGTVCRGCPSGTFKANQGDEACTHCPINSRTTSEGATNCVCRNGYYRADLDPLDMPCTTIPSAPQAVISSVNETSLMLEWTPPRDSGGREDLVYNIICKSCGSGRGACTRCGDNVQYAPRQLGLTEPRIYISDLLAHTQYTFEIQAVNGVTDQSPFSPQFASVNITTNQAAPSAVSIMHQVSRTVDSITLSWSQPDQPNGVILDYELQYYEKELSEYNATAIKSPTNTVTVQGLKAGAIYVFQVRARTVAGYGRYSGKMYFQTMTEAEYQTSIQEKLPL
Target sequence in this assay (P52799 28-229): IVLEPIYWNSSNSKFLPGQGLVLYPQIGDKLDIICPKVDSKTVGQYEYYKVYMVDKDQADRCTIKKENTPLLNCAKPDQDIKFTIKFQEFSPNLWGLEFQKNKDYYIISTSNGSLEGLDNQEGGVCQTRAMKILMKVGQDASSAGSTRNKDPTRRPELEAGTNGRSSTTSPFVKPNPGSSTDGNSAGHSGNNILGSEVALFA

[2] = molecular target: EphrinB2 of mouse pancreatic stellate cells stimulated with mouse EphB2-Fc-His (Mus musculus, UniProt P52800+P54763); assay: % pEphrinB2 by IP and immunoblot; assay type: cell-based
[3] = molecular target: EphrinB2-EphB1 (immobilized human EphrinB2, 25 nM soluble human EphB1) (Homo sapiens, UniProt P52799+P54762); assay: biochemical; conditions: read-out: % Inhibited (AUC) Association
[4] = molecular target: T1, human EphB2-His ectodomain - human EphrinB2-Fc ectodomain (EphB2-EphrinB2 tetramer); assay: biochemical
Target sequence in this assay (P29323 19-543): as the sequence (P29323 19-543) above
Target sequence in this assay (P52799 28-229): as the sequence (P52799 28-229) above

EphB1-EphrinB2 = EphB1-EphrinB2 (Homo sapiens, UniProt P52799+P54762); assay: biolayer interferometry, AUC; assay type: binding; conditions: read-out: % inhibition at 3.2 μM
[5] = molecular target: T1, human EphB2-His ectodomain - human EphrinB2-Fc ectodomain (EphB2-EphrinB2 tetramer); assay: biolayer interferometry, AUC; assay type: binding; conditions: read-out: % inhibition at 3.2 μM
Target sequence in this assay (P29323 19-543): as the sequence (P29323 19-543) above
Target sequence in this assay (P52799 28-229): as the sequence (P52799 28-229) above

[6] = molecular target: human EphB4-His ectodomain - human EphrinB2-Fc ectodomain (EphB4-EphrinB2) (Homo sapiens, UniProt P52799+P54760); assay: biolayer interferometry, AUC; assay type: binding; conditions: read-out: % inhibition at 3.2 μM
[7] = molecular target: T1, human EphB2-His ectodomain - human EphrinB2-Fc ectodomain (EphB2-EphrinB2 tetramer); assay: biochemical; conditions: EphrinB2-EphB2 IC50 (Absolute, µM)
Target sequence in this assay (P52799 28-229): as above
Target sequence in this assay (P29323 19-543): as the sequence (P29323 19-543) above

Chain of EphrinB2-EphB1 (immobilized human EphrinB2, 25 nM soluble human EphB1) (P52799 whole entry, the tested form may be a part): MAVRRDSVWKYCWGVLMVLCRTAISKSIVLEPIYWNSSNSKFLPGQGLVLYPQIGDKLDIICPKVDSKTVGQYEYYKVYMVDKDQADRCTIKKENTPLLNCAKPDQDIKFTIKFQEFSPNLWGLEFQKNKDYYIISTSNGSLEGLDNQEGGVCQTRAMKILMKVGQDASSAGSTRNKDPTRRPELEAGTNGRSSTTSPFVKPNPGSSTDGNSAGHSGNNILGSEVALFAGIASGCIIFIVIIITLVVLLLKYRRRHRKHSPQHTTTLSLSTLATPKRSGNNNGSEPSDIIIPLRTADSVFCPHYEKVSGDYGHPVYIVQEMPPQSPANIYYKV
Chain of EphrinB2-EphB1 (immobilized human EphrinB2, 25 nM soluble human EphB1) (P54762 whole entry, the tested form may be a part): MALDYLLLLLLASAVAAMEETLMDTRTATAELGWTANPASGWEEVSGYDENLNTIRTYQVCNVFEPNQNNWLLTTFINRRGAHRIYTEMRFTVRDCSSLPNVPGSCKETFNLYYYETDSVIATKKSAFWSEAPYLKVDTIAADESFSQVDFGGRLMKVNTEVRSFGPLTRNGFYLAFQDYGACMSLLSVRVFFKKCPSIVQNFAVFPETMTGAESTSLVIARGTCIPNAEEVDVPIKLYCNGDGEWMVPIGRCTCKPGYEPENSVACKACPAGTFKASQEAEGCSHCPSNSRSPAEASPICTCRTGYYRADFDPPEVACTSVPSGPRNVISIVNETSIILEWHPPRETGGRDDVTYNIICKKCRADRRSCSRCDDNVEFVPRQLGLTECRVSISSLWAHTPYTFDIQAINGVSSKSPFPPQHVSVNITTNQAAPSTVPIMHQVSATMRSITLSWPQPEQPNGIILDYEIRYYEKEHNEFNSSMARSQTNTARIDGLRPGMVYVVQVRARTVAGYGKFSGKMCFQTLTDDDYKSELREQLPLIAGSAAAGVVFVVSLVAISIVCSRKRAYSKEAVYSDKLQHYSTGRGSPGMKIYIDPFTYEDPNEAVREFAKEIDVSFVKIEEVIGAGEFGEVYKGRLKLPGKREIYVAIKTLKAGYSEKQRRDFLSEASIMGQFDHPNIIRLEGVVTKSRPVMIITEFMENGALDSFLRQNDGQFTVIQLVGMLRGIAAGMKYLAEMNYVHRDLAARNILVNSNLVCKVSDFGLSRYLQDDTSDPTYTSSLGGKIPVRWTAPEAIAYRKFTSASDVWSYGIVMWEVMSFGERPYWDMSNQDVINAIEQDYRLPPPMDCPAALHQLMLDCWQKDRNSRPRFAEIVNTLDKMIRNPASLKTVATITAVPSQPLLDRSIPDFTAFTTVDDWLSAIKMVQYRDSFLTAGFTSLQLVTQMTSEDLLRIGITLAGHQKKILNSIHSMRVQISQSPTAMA
Chain of human EphB4-His ectodomain - human EphrinB2-Fc ectodomain (EphB4-EphrinB2) (P54760 16-539): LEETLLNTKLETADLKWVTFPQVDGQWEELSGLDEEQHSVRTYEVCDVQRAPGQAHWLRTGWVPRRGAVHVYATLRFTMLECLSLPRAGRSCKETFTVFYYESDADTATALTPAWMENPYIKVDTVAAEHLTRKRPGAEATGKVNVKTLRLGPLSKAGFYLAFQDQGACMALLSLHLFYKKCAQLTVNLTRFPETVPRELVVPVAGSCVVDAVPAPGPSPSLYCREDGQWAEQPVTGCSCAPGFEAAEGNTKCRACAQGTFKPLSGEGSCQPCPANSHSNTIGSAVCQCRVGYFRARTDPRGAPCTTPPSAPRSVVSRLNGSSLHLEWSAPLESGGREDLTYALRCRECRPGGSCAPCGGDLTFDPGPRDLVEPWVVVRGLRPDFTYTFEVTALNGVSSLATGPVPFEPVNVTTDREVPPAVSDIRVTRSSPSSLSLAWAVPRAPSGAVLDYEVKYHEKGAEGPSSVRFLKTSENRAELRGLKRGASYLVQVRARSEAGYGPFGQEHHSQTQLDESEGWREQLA
Chain of human EphB4-His ectodomain - human EphrinB2-Fc ectodomain (EphB4-EphrinB2) (P52799 28-229): as the sequence (P52799 28-229) above
Chain of EphrinB2 of mouse pancreatic stellate cells stimulated with mouse EphB2-Fc-His (P52800 29-336): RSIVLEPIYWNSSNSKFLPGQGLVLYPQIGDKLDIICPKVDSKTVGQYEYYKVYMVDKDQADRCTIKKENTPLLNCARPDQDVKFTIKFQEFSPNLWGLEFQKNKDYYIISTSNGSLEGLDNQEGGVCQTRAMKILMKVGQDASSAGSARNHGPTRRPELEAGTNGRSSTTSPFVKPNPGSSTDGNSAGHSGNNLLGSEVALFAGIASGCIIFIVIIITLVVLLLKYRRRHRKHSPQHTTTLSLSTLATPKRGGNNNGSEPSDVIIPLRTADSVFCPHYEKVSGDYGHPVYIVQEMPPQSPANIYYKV
Chain of EphrinB2 of mouse pancreatic stellate cells stimulated with mouse EphB2-Fc-His (P54763 19-540): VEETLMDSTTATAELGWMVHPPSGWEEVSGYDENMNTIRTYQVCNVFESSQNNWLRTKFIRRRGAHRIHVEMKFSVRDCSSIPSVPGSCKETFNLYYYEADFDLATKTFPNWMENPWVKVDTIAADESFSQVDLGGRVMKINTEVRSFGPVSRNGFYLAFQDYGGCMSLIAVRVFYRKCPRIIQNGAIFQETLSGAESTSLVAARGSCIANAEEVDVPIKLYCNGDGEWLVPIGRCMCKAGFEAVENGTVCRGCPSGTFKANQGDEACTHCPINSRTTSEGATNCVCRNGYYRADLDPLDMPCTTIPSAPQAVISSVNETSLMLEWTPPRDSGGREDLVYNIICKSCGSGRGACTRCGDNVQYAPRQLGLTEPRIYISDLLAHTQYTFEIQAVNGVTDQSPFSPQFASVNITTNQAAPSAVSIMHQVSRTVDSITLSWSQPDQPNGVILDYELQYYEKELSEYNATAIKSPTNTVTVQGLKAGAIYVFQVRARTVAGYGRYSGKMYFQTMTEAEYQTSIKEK
Chain of EphB1-EphrinB2 (P54762 18-540 limits assumed): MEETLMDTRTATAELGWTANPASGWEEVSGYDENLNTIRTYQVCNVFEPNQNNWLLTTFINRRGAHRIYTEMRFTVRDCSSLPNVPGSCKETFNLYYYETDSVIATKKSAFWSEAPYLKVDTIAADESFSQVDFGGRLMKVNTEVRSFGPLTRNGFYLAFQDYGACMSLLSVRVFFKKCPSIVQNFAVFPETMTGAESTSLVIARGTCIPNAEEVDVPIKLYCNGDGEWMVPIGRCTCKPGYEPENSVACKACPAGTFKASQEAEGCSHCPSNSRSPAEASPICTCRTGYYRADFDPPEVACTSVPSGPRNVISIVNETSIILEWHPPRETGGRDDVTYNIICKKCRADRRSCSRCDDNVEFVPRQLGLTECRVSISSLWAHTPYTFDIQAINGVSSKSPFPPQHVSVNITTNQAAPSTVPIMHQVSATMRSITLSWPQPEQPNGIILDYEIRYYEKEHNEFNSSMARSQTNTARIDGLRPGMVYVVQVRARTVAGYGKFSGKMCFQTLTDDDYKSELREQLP
Chain of EphB1-EphrinB2 (P52799 28-229 limits assumed): as the sequence (P52799 28-229) above

SMILES	Ki [1] [nM]	IC50 [2] [nM]	inhibition at 3.2 µM [3] [%]	IC50 [4] [nM]	inhibition at 3.2 µM (EphB1-EphrinB2) [%]	inhibition at 3.2 µM [5] [%]	inhibition at 3.2 µM [6] [%]	IC50 [7] [µM]
Oc1c(Br)cc(CN2CCN(c3ccc(Br)cc3)CC2)c2cccnc12 [BQPB4]	2.88	1600	39.1	280	–	–	–	–
Oc1c(I)cc(CN2CCOCC2)c2cccnc12 [A20-I]	–	–	32.6	–	36.6	61.8	13.9	> 1.6
